Test results taken from ChEMBL document CHEMBL1201862, “PubChem BioAssay data set” (2004).
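All cell lines were grown in 96-well plates and treated with compound for 48 hours. Here, GI50 denotes the concentration required for 50% inhibition of growth.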 Active and inactive are the calls of the source. Cut-off read from the data, not from the text of the source: active = GI50 up to about 1.1 µM and inactive = higher.

How the values were obtained:
Assay in all cases: inhibition of tumour cell growth, NCI panel, 48 h
HL-60 = system: HL-60
NCI-H23 = system: NCI-H23
HCT-116 = system: HCT-116
KM12 = system: KM12
SK-MEL-2 = system: SK-MEL-2
SK-MEL-28 = system: SK-MEL-28
SF-268 = system: SF-268
SNB-19 = system: SNB-19
IGROV-1 = system: IGROV-1
DMS-273 = system: DMS-273
M19-MEL = system: M19-MEL
NCI-H226 = system: NCI-H226
KM-20L2 = system: KM-20L2
HT-29 = system: HT-29
A498 = system: A498
OVCAR-4 = system: OVCAR-4
TK-10 = system: TK-10
HCT-15 = system: HCT-15
SF-539 = system: SF-539
UACC-62 = system: UACC-62
HOP-62 = system: HOP-62
SK-OV-3 = system: SK-OV-3
A549 = system: A549
RXF 631 = system: RXF 631
LOX IMVI = system: LOX IMVI
SW-620 = system: SW-620
SN12C = system: SN12C
NCI-H460 = system: NCI-H460
ACHN = system: ACHN
U-251 = system: U-251
CCRF-CEM = system: CCRF-CEM
HOP-92 = system: HOP-92
SF-295 = system: SF-295
786-0 = system: 786-0
Malme-3M = system: Malme-3M
RXF 393 = system: RXF 393
DLD-1 = system: DLD-1
COLO 205 = system: COLO 205
M14 = system: M14
UACC-257 = system: UACC-257
DMS-114 = system: DMS-114
EKVX = system: EKVX
OVCAR-5 = system: OVCAR-5
SNB-78 = system: SNB-78
UO-31 = system: UO-31
CAKI-1 = system: CAKI-1
OVCAR-3 = system: OVCAR-3
HCC 2998 = system: HCC 2998
LXFL 529 = system: LXFL 529
HOP-18 = system: HOP-18
SNB-75 = system: SNB-75
MOLT-4 = system: MOLT-4
RPMI-8226 = system: RPMI-8226
OVCAR-8 = system: OVCAR-8
NCI-H522 = system: NCI-H522
K562 = system: K562
SK-MEL-5 = system: SK-MEL-5

In the case of `C=C(C)[C@H](O)C(O)CC(C)[C@@H]1CCC23CC12CCC1[C@@]2(C)CCC(OC(C)=O)C(C)(C)C2CC(OC2OC(COC(C)=O)C(O)C(O)C2O)[C@]13C` (stereo not given in full), the GI50 (HL-60) was 1.62 µM (inactive), the GI50 (NCI-H23) was 7.59 µM (inactive) and the GI50 (HCT-116) was 3.8 µM (inactive). For the same compound, the GI50 (KM12) was 5.47 µM (inactive), the GI50 (SK-MEL-2) was 8.83 µM (inactive) and the GI50 (SK-MEL-28) was 7.19 µM (inactive). The GI50 (SF-268) was 5.31 µM (inactive), the GI50 (SNB-19) was 5.9 µM (inactive) and the GI50 (IGROV-1) was 3.78 µM (inactive). For the same compound, the GI50 (DMS-273) was 5.66 µM (inactive), the GI50 (M19-MEL) was 5.24 µM (inactive) and the GI50 (NCI-H226) was 5.45 µM (inactive). For the same compound, the GI50 (KM-20L2) was 4.53 µM (inactive), the GI50 (HT-29) was 3.06 µM (inactive) and the GI50 (A498) was 7.98 µM (inactive). The GI50 (OVCAR-4) was 7.71 µM (inactive), the GI50 (TK-10) was 6.55 µM (inactive) and the GI50 (HCT-15) was 4.86 µM. The GI50 (SF-539) was 6.67 µM (inactive), the GI50 (UACC-62) was 3.84 µM (inactive) and the GI50 (HOP-62) was 6.92 µM (inactive). The GI50 (SK-OV-3) was 8 µM (inactive), the GI50 (A549) was 6.21 µM (inactive) and the GI50 (RXF 631) was 6.12 µM (inactive). For the same compound, the GI50 (LOX IMVI) was 4.86 µM (inactive), the GI50 (SW-620) was 6.14 µM (inactive) and the GI50 (SN12C) was 6.75 µM (inactive). The GI50 (NCI-H460) was 4.78 µM (inactive), the GI50 (ACHN) was 6.61 µM (inactive) and the GI50 (U-251) was 4.74 µM (inactive). The GI50 (CCRF-CEM) was 2.62 µM (inactive), the GI50 (HOP-92) was 5.37 µM (inactive) and the GI50 (SF-295) was 6.59 µM (inactive). The GI50 (786-0) was 7.4 µM (inactive), the GI50 (Malme-3M) was 7.91 µM (inactive) and the GI50 (RXF 393) was 2.9 µM (inactive). For the same compound, the GI50 (DLD-1) was 5.52 µM (inactive), the GI50 (COLO 205) was 6.61 µM (inactive) and the GI50 (M14) was 3.41 µM (inactive). For the same compound, the GI50 (UACC-257) was 6.01 µM (inactive), the GI50 (DMS-114) was 4.91 µM (inactive) and the GI50 (EKVX) was 6.67 µM (inactive). The GI50 (OVCAR-5) was 7.69 µM (inactive), the GI50 (SNB-78) was 7.16 µM (inactive) and the GI50 (UO-31) was 8.18 µM (inactive). The GI50 (CAKI-1) was 6.22 µM (inactive), the GI50 (OVCAR-3) was 5.83 µM (inactive) and the GI50 (HCC 2998) was 6.35 µM (inactive). The GI50 (LXFL 529) was 5.32 µM (inactive), the GI50 (HOP-18) was 8.85 µM (inactive) and the GI50 (SNB-75) was 3.4 µM (inactive). The GI50 (MOLT-4) was 2.34 µM (inactive), the GI50 (RPMI-8226) was 1.5 µM (inactive) and the GI50 (OVCAR-8) was 6.47 µM (inactive). The GI50 (NCI-H522) was 4.35 µM (inactive) and the GI50 (K562) was 2.42 µM (inactive).

`CC(=O)O[C@H]1CSC[C@@H](OC(C)=O)C1[N+](=O)[O-]` (stereo not given in full) was tested, and the GI50 (HL-60) was 23.2 µM (inactive), the GI50 (NCI-H23) was > 100 µM (inactive) and the GI50 (HCT-116) was 95.3 µM (inactive). For the same compound, the GI50 (KM12) was 63 µM (inactive), the GI50 (SK-MEL-2) was 27.3 µM (inactive) and the GI50 (SK-MEL-28) was 26.8 µM (inactive). The GI50 (SF-268) was > 100 µM (inactive), the GI50 (SNB-19) was > 100 µM (inactive) and the GI50 (IGROV-1) was > 100 µM (inactive). For the same compound, the GI50 (DMS-273) was > 100 µM (inactive), the GI50 (M19-MEL) was 47.3 µM (inactive) and the GI50 (NCI-H226) was > 100 µM (inactive). For the same compound, the GI50 (KM-20L2) was > 100 µM (inactive), the GI50 (HT-29) was 48.2 µM (inactive) and the GI50 (A498) was > 100 µM (inactive). The GI50 (OVCAR-4) was 54.8 µM (inactive), the GI50 (TK-10) was > 100 µM (inactive) and the GI50 (HCT-15) was 30.1 µM. For the same compound, the GI50 (SF-539) was 43.8 µM (inactive), the GI50 (UACC-62) was 65.8 µM (inactive) and the GI50 (HOP-62) was > 100 µM (inactive). The GI50 (SK-OV-3) was > 100 µM (inactive), the GI50 (A549) was > 100 µM (inactive) and the GI50 (RXF 631) was > 100 µM (inactive). For the same compound, the GI50 (SW-620) was 27 µM (inactive), the GI50 (SN12C) was > 100 µM (inactive) and the GI50 (NCI-H460) was > 100 µM (inactive). For the same compound, the GI50 (ACHN) was 93.5 µM (inactive), the GI50 (U-251) was > 100 µM (inactive) and the GI50 (CCRF-CEM) was 19.5 µM (inactive). For the same compound, the GI50 (HOP-92) was 19 µM (inactive), the GI50 (SF-295) was > 100 µM (inactive) and the GI50 (786-0) was 19.2 µM (inactive). For the same compound, the GI50 (Malme-3M) was 23 µM (inactive), the GI50 (RXF 393) was 20.1 µM (inactive) and the GI50 (COLO 205) was 21.4 µM (inactive). The GI50 (M14) was 29.6 µM (inactive), the GI50 (UACC-257) was 20.6 µM (inactive) and the GI50 (DMS-114) was 39.1 µM (inactive). For the same compound, the GI50 (EKVX) was > 100 µM (inactive), the GI50 (OVCAR-5) was > 100 µM (inactive) and the GI50 (SNB-78) was 33.4 µM (inactive). For the same compound, the GI50 (CAKI-1) was 48.6 µM (inactive), the GI50 (OVCAR-3) was 21.5 µM (inactive) and the GI50 (HCC 2998) was 33.7 µM (inactive). The GI50 (LXFL 529) was 18 µM (inactive), the GI50 (HOP-18) was 50.7 µM (inactive) and the GI50 (SNB-75) was 65.2 µM (inactive). For the same compound, the GI50 (MOLT-4) was 27.8 µM (inactive), the GI50 (RPMI-8226) was 22.5 µM (inactive) and the GI50 (OVCAR-8) was 45.5 µM (inactive). The GI50 (SK-MEL-5) was 47.8 µM (inactive), the GI50 (NCI-H522) was 19.4 µM (inactive) and the GI50 (K562) was 26.4 µM (inactive).
